Reference: patent publication US12403141B2, “Deuterated MK2 pathway inhibitors and methods of using the same” (ACLARIS THERAPEUTICS, INC., priority 2019, dated 2025)
“Also recorded” adds a separate entry of the source. One block for each compound: values may come before it.

Legend:
[1] = PO pharmacokinetics in male SD rats; assay type: in vivo, rat; conditions: PO 2 mpk
Method: Pharmacokinetic parameters of some examples were evaluated in male Sprague Dawley (SD) rats after intravenous (IV) and oral (PO) dosing. Male SD rats (5-6 weeks of age) were fasted for 12 hours before administration of the compound of interest. Animals were allowed access to food 2 h after dosing and water was given ad libitum. Except for the compound of Example 13, pharmacokinetic experiments comparing deuterium containing and non-deuterium containing compounds were performed at the same time using the same cohort of animals. The pharmacokinetic properties of the compound of Example 13 were evaluated separately and compared to previously generated data.
For oral (PO) dosing, a 0.2 mg/mL suspension of the test compound was prepared in a vehicle comprising 0.5% Tween-20 in 0.5% methyl cellulose in phosphate buffered saline (PBS). For a 2 mpk dose, 10 mL/kg of this dosing vehicle was administered by oral gavage. Blood samples from each animal was collected di-sodium EDTA coated containers at 0.25, 0.5, 1.0, 2.0, 4.0, 8.0 10.0 and 24.0 hours after dosing. Plasma was separated from the blood samples within 15 minutes following collection and stored at −20±5° C. before analysis.
A standard curve was generated from a stock solution of the test compound with known concentration in methanol. […]
Plasma samples collected from rats after dosing were allowed to reach room temperature. […] The supernatant (10 uL) was analyzed by LC-MS/MS (LC: Shimadzu SIL HTc, MS: MDS Sciex API-5500 & 4000 using 75%/25% acetonitrile/0.2% formic acid in Milli-Q water, flow rate: 1.0 mL/min, run time 3 minutes, Atlantis dC18(50×4.6 mm, 3 um; Waters®)) and the concentrations of the test compound in the plasma samples collected from rats at each time point were determined by comparison to the standard curve samples.
Pharmacokinetic parameters were calculated from the plasma concentrations at each time point using Phoenix WinNonlin (Version 7.0) by the non-compartmental analysis (NCA) method. […]

rat hepatocytes = assay: In vitro metabolite profile in rat hepatocytes; assay type: in vitro ADME; set-up: key to UV % at 280-290 nm or observed (+ or --), metabolite M532b (Hydroxylation) / UV % at 280-290 nm or observed (+ or --), metabolite M532d (Hydroxylation) / UV % at 280-290 nm or observed (+ or --), metabolite M532e (Hydroxylation) / UV % at 280-290 nm or observed (+ or --), metabolite M530b (Hydroxylation) / UV % at 280-290 nm or observed (+ or --), metabolite M530d (Hydroxylation) / UV % at 280-290 nm or observed (+ or --), metabolite M530e (Hydroxylation): +: only detected by MS; --: not detected or trace; conditions: 10 μM; for UV % at 280-290 nm, Parent-T0 min: T0 min (normalized as 100%)
Method: (§1) Briefly, each test compound (final concentration of 10 μM containing 0.1% DMSO) was incubated with rat, dog, minipig, monkey, or human hepatocytes (final viable cell density of 1×10^6 cells/mL) at 37° C. with 5% CO2 in HI hepatocyte maintenance media (BIOIVT; Catalog #Z99009) for 120 minutes. Reactions were initiated by combining 200 μL of pre-warmed 2× dosing solution containing 20 μM test compound and 0.2% DMSO in HI maintenance media with 200 μL of pre-warmed hepatocyte solution containing 2×10^6 cells/mL in HI maintenance media. Samples were taken at 0 minutes (T0) and 120 minutes (T120) by quenching the reaction with 1200 μL acetonitrile. After quenching, the samples were sonicated for 2 minutes and then centrifuged at 1400 rpm for 5 minutes. A 1400-μL aliquot of the supernatant was evaporated under a stream of N2 until dry. The dried extracts were then reconstituted with 200 μL acetonitrile: H2O (1:3 v/v), vortexed for 2 minutes and centrifuged at 14000 rpm for 5 minutes. A 2-μL aliquot of the supernatant was injected onto a Xevo UPLC-UV-G2-S Q-Tof system (Waters®) with positive-ion electrospray ionization for analysis. Chromatographic separation was achieved on an Acquity UPLC®BEH C18 column (2.1×50 mm, 1.7 μm; Waters®) by gradient elution using varying proportions of mobile phase A (H2O with 0.1% formic acid) and mobile phase B (acetonitrile with 0.1% formic acid) at a constant flow rate of 400 μL/minute over a total run time of 10 minutes. LC-UV-MS extract ion chromatograms (EIC) of the T120 samples were compared to the T0 samples to identify the major putative metabolites which were named as Mm/z.

dog hepatocytes = assay: In vitro metabolite profile in dog hepatocytes; assay type: in vitro ADME; set-up: key to UV % at 280-290 nm or observed (+ or --), metabolite M387 (O-dealkylation) / UV % at 280-290 nm or observed (+ or --), metabolite M532b (Hydroxylation) / UV % at 280-290 nm or observed (+ or --), metabolite M532c (Hydroxylation) / UV % at 280-290 nm or observed (+ or --), metabolite M532d (Hydroxylation) / UV % at 280-290 nm or observed (+ or --), metabolite M532e (Hydroxylation) / UV % at 280-290 nm or observed (+ or --), metabolite M563 (O-dealkylation + Glucuronidation) / UV % at 280-290 nm or observed (+ or --), metabolite M530b (Hydroxylation) / UV % at 280-290 nm or observed (+ or --), metabolite M530c (Hydroxylation) / UV % at 280-290 nm or observed (+ or --), metabolite M530d (Hydroxylation) / UV % at 280-290 nm or observed (+ or --), metabolite M530e (Hydroxylation): +: only detected by MS; --: not detected or trace; conditions: 10 μM; for UV % at 280-290 nm, Parent-T0 min: T0 min (normalized as 100%)
Method: as §1

[2] = 120 min, relative to parent at T0

AUC0-10 hr ([1]; ± one standard deviation): 854 ± 228 ng·h/mL
UV % at 280-290 nm or observed (+ or --), metabolite M387 (O-dealkylation) (rat hepatocytes; [2]): 16.2%
UV % at 280-290 nm or observed (+ or --), metabolite M530b (Hydroxylation) (rat hepatocytes; [2]): +
UV % at 280-290 nm or observed (+ or --), metabolite M530c (Hydroxylation) (rat hepatocytes; [2]): 1.1%
UV % at 280-290 nm or observed (+ or --), metabolite M530e (Hydroxylation) (rat hepatocytes; [2]): +
UV % at 280-290 nm or observed (+ or --), metabolite M563 (O-dealkylation + Glucuronidation) (rat hepatocytes; [2]): 1.06%
UV % at 280-290 nm or observed (+ or --), metabolite M530d (Hydroxylation) (rat hepatocytes; [2]): --
UV % at 280-290 nm, Parent-T120 min (rat hepatocytes; [2]): 82.7%
UV % at 280-290 nm, Parent-T0 min (rat hepatocytes): 100.0%
UV % at 280-290 nm or observed (+ or --), metabolite M387 (O-dealkylation) (dog hepatocytes; [2]): 4.1%
UV % at 280-290 nm or observed (+ or --), metabolite M530b (Hydroxylation) (dog hepatocytes; [2]): --
UV % at 280-290 nm or observed (+ or --), metabolite M530c (Hydroxylation) (dog hepatocytes; [2]): +
UV % at 280-290 nm or observed (+ or --), metabolite M530e (Hydroxylation) (dog hepatocytes; [2]): +
UV % at 280-290 nm or observed (+ or --), metabolite M563 (O-dealkylation + Glucuronidation) (dog hepatocytes; [2]): +
UV % at 280-290 nm or observed (+ or --), metabolite M530d (Hydroxylation) (dog hepatocytes; [2]): --
UV % at 280-290 nm, Parent-T120 min (dog hepatocytes; [2]): 87.0%
UV % at 280-290 nm, Parent-T0 min (dog hepatocytes): 100.0%
Compound: Cc1cnc(-c2ccnc(C(C)(C)O)n2)cc1-n1c(C)cc(OCc2ncc(F)cc2F)c(Cl)c1=O (atropisomer, axis not shown; (P)) [Example 1-H2, (P)-3-chloro-4-((3,5-difluoropyridin-2-yl)methoxy)-2′-(2-(2-hydroxypropan-2-yl)pyrimidin-4-yl)-5′,6-dimethyl-2H-[1,4′-bipyridin]-2-one]

AUC(0-t) ([1]; Sprague-Dawley, rat, plasma, 2 mg/kg, ± one standard deviation, read-out: AUC0-10 hr): 2020 ± 120 ng·h/mL
UV % at 280-290 nm or observed (+ or --), metabolite M532b (Hydroxylation) (rat hepatocytes; [2]): --
UV % at 280-290 nm or observed (+ or --), metabolite M532e (Hydroxylation) (rat hepatocytes; [2]): +
UV % at 280-290 nm or observed (+ or --), metabolite M532d (Hydroxylation) (rat hepatocytes; [2]): --
UV % at 280-290 nm, Parent-T120 min (rat hepatocytes; [2]): 84.3%
UV % at 280-290 nm, Parent-T0 min (rat hepatocytes): 100.0%
UV % at 280-290 nm or observed (+ or --), metabolite M387 (O-dealkylation) (dog hepatocytes; [2]): +
UV % at 280-290 nm or observed (+ or --), metabolite M532b (Hydroxylation) (dog hepatocytes; [2]): --
UV % at 280-290 nm or observed (+ or --), metabolite M532c (Hydroxylation) (dog hepatocytes; [2]): +
UV % at 280-290 nm or observed (+ or --), metabolite M532e (Hydroxylation) (dog hepatocytes; [2]): +
UV % at 280-290 nm or observed (+ or --), metabolite M532d (Hydroxylation) (dog hepatocytes; [2]): --
UV % at 280-290 nm, Parent-T120 min (dog hepatocytes; [2]): 96.0%
UV % at 280-290 nm, Parent-T0 min (dog hepatocytes): 100.0%
Compound: [2H]C([2H])(Oc1cc(C)n(-c2cc(-c3ccnc(C(C)(C)O)n3)ncc2C)c(=O)c1Cl)c1ncc(F)cc1F (single isomer, unassigned) [Example 1-D2, (P)-3-Chloro-4-((3,5-difluoropyridin-2-yl)methoxy-d2)-2′-(2-(2-hydroxypropan-2-yl)pyrimidin-4-yl)-5′,6-dimethyl-2H-[1,4′-bipyridin]-2-one]
effect of deuterium substitution on exposure after PO dosing (AUC) ([1]; versus non-deuterated comparator, listed as Example 1): significantly higher exposure; also recorded: increased exposure
